{
  "source": "patent US20070203248A1",
  "about": "“Cardioprotective agents” (DABUR RESEARCH FOUNDATION., priority 2003, published 2007)",
  "key": {"[1]": {"test_system": "Adriamycin treated rat myocardium", "settings": "for LP (lipid peroxidation), myocardium: 24 hours", "description": "The effect of 5-Methoxytryptamine on lipid peroxidation in Adriamycin treated myocardial tissue was quantitated by Thiobarbituric acid reactive substances based assay as described (Uchiyama and Mihara, M., Anal. Biochem. 86, 271-278, 1978). Briefly male Wistar rats of the age group 5-6 weeks were maintained on normal rat pellets ad libitum. Rats were divided into four groups viz Groups I, II, III and IV.\nGroup II, Animals treated with Adriamycin\n(§1) Group III: Animals treated with 5-Methoxytryptamine and Adriamycin.\n(§2) Group IV: Animals treated with 5 Methoxytryptamine\nEach group consisted of 5 animals. 30 mg/kg body weight of Adriamycin was administered intraperitoneally to animals in Groups II and III. The animals comprising group III, were injected intraperitoneally with 5-Methoxytryptamine in concentration ranging from 8.5-35 mg/kg body weight 30 minutes prior to the Adriamycin treatment. The animals comprising group IV, were injected intraperitoneally with 5-Methoxytryptamine in concentration ranging from 8.5-35 mg/kg body weight. 24 hours later, the beating hearts of the animals were excised by decapitation. The heart tissue was washed in ice cold saline twice, weighed and snap frozen at −70° C. for assaying for Lipid peroxidation.\nBriefly 200 mg of the live rat myocardial tissue was excised and homogenized in 2 ml of ice cold 10% Trichloro acetic acid buffer (TCA) buffer. To 200 ul of the homogenate thus obtained, 200 ul of 8.1% SDS, 1.5 ml of 20% Acetic acid, 1.5 ml of 0.8% of Thiobarbituric acid (TBA) and 1.0 ml of water was added in glass test tubes. The tubes were heated at 95° C. for 60 minutes. The mixture was cooled and diluted with 1 ml of double distilled water. A mixture of n-butanol and pyridine was prepared fresh in the ratio of 15:1 respectively. 5 ml of the n-butanol-pyridine mix was added to each tube containing the cardiac tissue homogenates. The tubes were centrifuged at 3000 rpm for 10 minutes at 4° C. 200 ul of the coloured liquid was collected from at the interphase of the aqueous and organic layers and the absorbance was measured spectrophotometrically at 532 nm. The control experiments contained only the TCA buffer treated similarly. The standard tubes contained Malonaldehyde in concentrations ranging from 2.5-25 uM. Malonaldehyde was dissolved in double distilled water. All experiments were carried out in triplicates. The extent of lipid peroxidation in the cardiac homogenates was expressed as uM/gm of the cardiac tissue. The extent of lipid peroxidation was calculated for the cardiac tissues of the animals comprising Groups I, II, III and IV."}, "[2]": {"assay": "DPPH free radical scavenging assay in vitro", "format": "biochemical", "settings": "for Mean percent Radical scavenging: DPPH, 5 minutes", "protocol": "The free radical scavenging potential of 5-Methoxytryptamine was evaluated by the 1,1 diphenyl-2 picryl hydrazyl (DPPH) assay as described (Hycon, Lee et al, Arch. Pharm. Res. 19 (3), 223-227). […] 5-Methoxytryptamine was dissolved in 3.5% ethanol in normal saline and screened for its radical scavenging activity in concentration ranging from 1-1000 ug/ml. 100 ul of 0.2 mM DPPH was incubated with 100 ul of varying concentrations of 5-Methoxy tryptamine in 96 well tissue culture plates for 20 seconds at room temperature. All experiments were carried out in triplicates. 3.5% ethanol in normal saline was similarly incubated with 0.2 mM DPPH in control experiments for evaluating the effect of the vehicle on radical scavenging. The change in absorbance of DPPH incubated with varying concentrations of 5-Methoxy tryptamine of the vehicle was read at 517 nm for every 60 secs for 5 minutes. The absorbance of 0.2 mM DPPH taken after incubating for 5 minutes at room temperature was the blank O.D. The percent free radical scavenging ability of 5-Methoxy tryptamine was calculated as defined below. Percent Free Radical scavenging=Blank OD at 5 minutes−Sample OD at 5 minutes×100/Blank OD at 5 minutes"}, "[3]": {"test_system": "human tumour cell lines", "assay": "MTT cytotoxicity assay, effect of 5-Methoxytryptamine on anticancer activity of Adriamycin", "format": "cell-based", "settings": "5-Methoxytryptamine at its highest concentration 1 ug/ml; MCF7, DU145, MiaPaCa2, HT 29", "protocol": "Adriamycin was dissolved in saline immediately before use. […] 1 ug/ml."}, "[4]": {"test_system": "Adriamycin treated animals", "quoted_text": "The effect of 5-Methoxytryptamine on circulating LDH levels was quantitated as described. Briefly male Wistar rats of the age group 5-6 weeks were maintained on normal rat pellets ad libidum. Rats were divided into four groups viz. Groups I, II, III and IV.\n(§3) Group II: Animals treated with Adriamycin\n(§4) Group III: Animals treated with Adriamycin and 5-Methoxytryptamine\nas §2\nEach group consisted of 6 animals. 5 mg/kg of Adriamycin was administered intraperitoneally to animals of groups II and III as two equal divided doses once every seven days. The animals comprising Group III were injected intraperitoneally with 17.5 mg/kg of 5-Methoxytryptamine, as seven equal doses given every alternate day. The animals of the group III were injected with 5-Methoxytryptamine, 30 minutes prior to the Adriamycin injection. The animals comprising Group IV were treated with 17.5 mg/kg of 5-Methoxytryptamine as seven equal doses, given every alternate day. At the 41st day of the study, blood was collected from the retroorbital vein of all the animals in the study. The blood was kept at room temperature for 15 minutes, and spun at 3000 rpm for 15 minutes. […] The quantitation was carried out by kits procured from Bayer Diagnostics using RA 50 Chemistry Analyzer (Bayer Diagnostics), as per the manufacturer's instructions."}, "[5]": {"test_system": "Adriamycin treated rat myocardium", "settings": "for SOD (Superoxide Dismutase), myocardium: 24 hours", "quoted_text": "(§5) Briefly male Wistar rats of the age group 5-6 weeks were maintained on normal rat pellets ad libitum. Rats were divided into four groups viz. Groups I, II, III and IV.\nas §3\nEach group consisted of 5 animals. 30 mg/kg body weight of Adriamycin was administered intraperitoneally to animals in Groups II and III. […] 24 hours later, the beating hearts of the animals were excised by decapitation. The heart tissue was washed in ice cold saline twice, weighed and frozen for assaying Superoxide Dismutase activity.\nBriefly, 200 mg of rat myocardial tissue was excised and homogenized in 2 ml of ice cold Tris sucrose buffer (pH 7.4). The homogenate was centrifuged at 10000 rpm, at 4° C. for 10 minutes, and the supernatent carefully aspirated and collected. For each experiment, 1.2 ml of sodium pyrophosphate buffer was taken in clean glass tubes. To this 100 ul of 186 uM Phenazine methosulphate solution, 300 ul of a 300 uM solution of Nitroblue tetrazolium and 600 ul of double distilled water was added and mixed well. 600 ul of the supernatent obtained earlier was added per tube. A solution of NADH of the concentration 780 uM was freshly prepared for the experiments. The reaction in the tubes was initiated by the addition of 200 ul of a 780 uM solution of NADH per tube. The tubes were incubated for 90 seconds at room temperature. The reaction was stopped by the addition of 1 ml of 100% glacial acetic acid per tube and the absorbance measured spectrophotometrically at 560 nM. All experiments were carried out in triplicates. The control experiments contained only ice cold Tris Sucrose buffer (pH 7.4) treated identically. The standard tubes contained the enzyme Superoxide Dimutase dissolved in double distilled water in concentrations ranging from 0.1 U to 20 Units treated identically as above. The enzyme activity in the tissue homogenates was quantitated by rate of decrease in optical density at 560 nm, and expressed as units/mg protein. The Superoxide Dismutase activity was calculated for the cardiac tissues of the animals comprising Groups I, II, III and IV."}, "[6]": {"test_system": "Adriamycin treated rat liver tissue", "settings": "for LP (lipid peroxidation), liver: 24 hours", "quoted_text": "as §5, §3, §1\nGroup IV: Animals treated with 5-Methoxytryptamine\nEach group consisted of 5 animals. 30 mg/kg body weight of Adriamycin was administered intraperitoneally to animals in Groups II and III. The animals comprising group III, were injected intraperitoneally with 5-Methoxytryptamine in concentrations ranging from 8.5-35 mg/kg body weight 30 minutes prior to the Adriamycin treatment. The animals comprising group IV, were injected intraperitoneally with 5-Methoxytryptamine in concentrations ranging from 8.5-35 mg/kg body weight. 24 hours later, the liver tissue of the animals were excised. The liver tissue was washed in ice cold saline twice, weighed and snap frozen at −70° C. for assaying for Lipid peroxidation.\nBriefly 200 mg of the rat liver tissue was excised and homogenized in 2 ml of ice cold 10% Trichloro acetic acid buffer (TCA) buffer. To 200 ul of the homogenate thus obtained, 200 ul of 8.1% SDS, 1.5 ml of 20% Acetic acid, 1.5 ml of 0.8% of Thiobarbituric acid (TBA) and 1.0 ml of water was added in glass test tubes. The tubes were heated at 95° C. for 60 minutes. The mixture was cooled and diluted with 1 ml of double distilled water. A mixture of n-butanol and pyridine was prepared fresh in the ratio of 15:1 respectively. 5 ml of the n-butanol-pyridine mix was added to each tube containing the liver tissue homogenates. The tubes were centrifuged at 3000 rpm for 10 minutes at 4° C. 200 ul of the colored liquid was collected from the interphase of the aqueous and organic layers and the absorbance was measured spectrophotometrically at 532 nm. The control experiments contained only the TCA buffer treated similarly. The standard tubes contained Malonaldehyde in concentrations ranging from 2.5-25 uM. Malonaldehyde was dissolved in double distilled water. All experiments were carried out in triplicates. The extent of lipid peroxidation in the liver homogenates was expressed as uM/gm of the liver tissue. The extent of lipid peroxidation was calculated for the liver tissues of the animals comprising Groups I, II, III and IV."}, "[7]": {"test_system": "Adriamycin treated animals", "remark": "listed apart in the source", "quoted_text": "The effect of 5-Methoxy tryptamine on circulating CK-MB levels was quantitated as described. Briefly male Wistar rats of the age group 5-6 weeks were maintained on normal rat pellets ad libidum. Rats were divided into four groups viz. Groups I, II, III and IV.\nas §3, §4\nGroup IV: Animals treated with 5-Methoxytryptamine.\nEach group consisted of 6 animals. 5 mg/kg of Adriamycin was administered intraperitoneally to animals of groups II and III as two equal divided doses once every seven days. The animals comprising Group III were injected intraperitoneally with 17.5 mg/kg of 5-Methoxytryptamine, as seven equal doses given every alternate day. The animals of the group III were injected with 5-Methoxytryptamine, 30 minutes prior to the Adriamycin injection. The animals comprising Group IV were treated with 17.5 mg/kg of 5-Methoxytryptamine as seven equal doses, given every alternate day. At the 41st day of the study, blood was collected from the retroorbital vein of all the animals in the study. The blood was kept at room temperature for 15 minutes, and spun at 3000 rpm for 15 minutes. […] The quantitation was carried out by kits procured from Bayer Diagnostics using RA 50 Chemistry Analyzer (Bayer Diagnostics), as per the manufacturers instructions."}, "[8]": {"settings": "8.5-35 mg/kg, 30 mg/kg doxorubicin"}, "[9]": {"settings": "Group IV A: 5 MT 8.5 mg/kg i.p. alone"}, "[10]": {"settings": "Group IV B: 5 MT 17 mg/kg i.p. alone"}, "[11]": {"settings": "Group IV C: 5 MT 35 mg/kg i.p. alone"}, "[12]": {"settings": "Group IV: 5-Methoxytryptamine 17.5 mg/kg as seven doses every alternate day, alone, serum, day 41"}},
  "note": "Values joined by “and” are separate entries in the source; they are usually repeats but may differ in a detail not shown here. Equal entries are not always repeated. Where two headings read alike, the source gives them in different places.",
  "data": [
    {"smiles": "COc1ccc2[nH]cc(CCN)c2c1", "note": "[5-Methoxytryptamine]", "values": [
      {"measurement": "Effect on lipid peroxidation in rat myocardial tissue, alone", "setting": "[1]; 8.5-35 mg/kg alone", "result": "did not alter the lipid peroxidation"},
      {"measurement": "Effect on lipid peroxidation in rat myocardial tissue treated with doxorubicin", "setting": "[1]; [8]", "result": "inhibits the lipid peroxidation"},
      {"measurement": "LP (lipid peroxidation), myocardium", "setting": "[1]; [9]", "result": "535 ± 12.5", "unit": "µmol/g"},
      {"measurement": "LP (lipid peroxidation), myocardium", "setting": "[1]; [10]", "result": "500 ± 14.5", "unit": "µmol/g"},
      {"measurement": "LP (lipid peroxidation), myocardium", "setting": "[1]; [11]", "result": "513 ± 12.3", "unit": "µmol/g"},
      {"measurement": "Mean percent Radical scavenging", "setting": "[2]; 31 ug/ml", "result": "10 ± 4.3", "unit": "%"},
      {"measurement": "Mean percent Radical scavenging", "setting": "[2]; 62.5 ug/ml", "result": "25 ± 5.0", "unit": "%"},
      {"measurement": "Mean percent Radical scavenging", "setting": "[2]; 125 ug/ml", "result": "75.4 ± 5.5", "unit": "%"},
      {"measurement": "Mean percent Radical scavenging", "setting": "[2]; 250 ug/ml", "result": "85.24 ± 4.8", "unit": "%"},
      {"measurement": "Mean percent Radical scavenging", "setting": "[2]; 500 ug/ml", "result": "87.4 ± 5.0", "unit": "%"},
      {"measurement": "Mean percent Radical scavenging", "setting": "[2]; 1000 ug/ml", "result": "88.25% and 88.25 ± 5.1%"},
      {"measurement": "Concentration range in which free radicals are scavenged", "setting": "[2]; DPPH in vitro", "result": "31 to 1000", "unit": "µg/mL"},
      {"measurement": "Effect of addition on ED50 values of the cytotoxicity of Adriamycin", "setting": "[3]", "result": "is not altered"},
      {"measurement": "Effect on LDH levels in Adriamycin treated animals", "setting": "[4]; 17.5 mg/kg, Adriamycin 5 mg/kg", "result": "reduces the LDH levels"},
      {"measurement": "LDH", "setting": "[4]; [12]", "result": "1009 ± 26", "unit": "U/L"},
      {"measurement": "Effect on Superoxide Dismutase activity in rat myocardium, alone", "setting": "[5]; 8.5-35 mg/kg alone", "result": "did not alter the Superoxide Dismutase activity"},
      {"measurement": "Effect on Superoxide Dismutase activity in rat myocardium treated with Doxorubicin", "setting": "[5]; [8]", "result": "increases the Superoxide Dismutase activity"},
      {"measurement": "SOD (Superoxide Dismutase), myocardium", "setting": "[5]; [9]", "result": "32 ± 2.5", "unit": "U/mg"},
      {"measurement": "SOD (Superoxide Dismutase), myocardium", "setting": "[5]; [10]", "result": "30 ± 2.9", "unit": "U/mg"},
      {"measurement": "SOD (Superoxide Dismutase), myocardium", "setting": "[5]; [11]", "result": "34 ± 4.5", "unit": "U/mg"},
      {"measurement": "Effect on lipid peroxidation in rat liver tissue, alone", "setting": "[6]; 8.5-35 mg/kg alone", "result": "does not alter the lipid peroxidation"},
      {"measurement": "LP (lipid peroxidation), liver", "setting": "[6]; [9]", "result": "601 ± 16.5", "unit": "µmol/g"},
      {"measurement": "LP (lipid peroxidation), liver", "setting": "[6]; [10]", "result": "625 ± 15.5", "unit": "µmol/g"},
      {"measurement": "LP (lipid peroxidation), liver", "setting": "[6]; [11]", "result": "630 ± 16.3", "unit": "µmol/g"},
      {"measurement": "Effect on CK-MB levels in Adriamycin treated animals", "setting": "[7]; 17.5 mg/kg, Adriamycin 5 mg/kg", "result": "reduces the CK-MB levels"},
      {"measurement": "CK - MB", "setting": "[7]; [12]", "result": "379 ± 26", "unit": "U/L"}
    ]}
  ]
}
